In US20200131227A1, “POLYPEPTIDE WITH TUMOUR BINDING ACTIVITY” (RUPRECHT-KARLS-UNIVERSITÄT HEIDELBERG, priority 2017, published 2020):
Where a SMILES comes first, the peptide text is derived from it. Bridges are numbered along the chain shown (N, C = ends). The star is where a group is joined. DOTA = O=C(O)CN1CCN(CC(=O)O)CCN(CC(=O)*)CCN(CC(=O)O)CC1

Key:
HNO97 cells = assay: In vitro binding, kinetics, internalization and efflux on HNO97 cells; assay type: cell-based, human
Method: For binding studies, 2.5×10^5 to 4×10^5 cells were seeded in 6-well plates and cultivated for 48 hours. Cells were incubated for 60 min with 1 mL serum-free medium containing the ^125I-labeled peptide (see above). For competition experiments, cells were simultaneously exposed to unlabeled (10^-4 M to 10^-10 M) and ^125I-labeled peptides. After three washing steps with PBS (pH 7.4) the cells were lysed with 0.5 mL of 0.3 M NaOH. Experiments concerning the internalization, kinetics and efflux were additionally performed with ^177Lu-DOTA-SFITGv6. To evaluate kinetics and efflux HNO97 cells were incubated for different time intervals (10 min to 480 min) and 60 min, respectively, with ^177Lu-DOTA-SFITGv6 and lysed as described. To continue with the efflux experiment radioactive medium was replaced by non-radioactive medium and cells were incubated again for 60 to 240 min before measuring radioactivity of the cell lysates and the medium. For internalization experiments the cells were exposed to ^177Lu-DOTA-SFITGv6 for different time intervals (10 to 240 min) at 37° C. and 4° C. After three washing steps with PBS the cells were incubated with 1 mL of glycine-HCl 50 mmol/L in PBS (pH 2.8) for 10 min at RT to remove the surface bound activity. Then, cells were washed with 3 mL of ice-cold PBS and lysed as described. Radioactivity was determined in a gamma counter and calculated as percentage of the applied dose per 1×10^6 cells. Experiments were performed three times, and three repetitions per independent experiment were acquired.
(§1) For the assessment of the peptide binding capacity in vitro, 2.5-4×10^5 cells were seeded into 6-well plates and cultivated for 48 h. ^125I-labeled peptide resuspended in 1 mL serum-free medium was added and incubated for either 10 min or 60 min with or without different concentrations of unlabeled peptide (10^−4-10^−11 M). Afterwards, cell monolayers were washed three times with 1 mL phosphate-buffered saline (pH 7.4) to remove unbound peptide and the cells were harvested with 1.4 mL lysis buffer (0.3 M NaOH). To evaluate kinetic properties the cells were exposed to ^177Lu-DOTA-labeled peptides for 10, 30, 60, 120, and 240 min, respectively, and lysed as described. For the efflux experiments the cells were incubated with ^177Lu-DOTA-labeled peptides for 60 min. Thereafter, radioactive medium was replaced by non-radioactive medium and cell monolayers were incubated for additional 60, 120, and 240 min and afterwards lysed as described earlier. The internalization was assessed after exposure of the cells to ^177Lu-DOTA-labeled peptides for 10, 30, 60, 120, and 240 min at 37° C. Unspecifically bound peptide was removed from the surface by incubation with 1 M glycine-HCl solution (pH 2.2) for 10 min. The monolayer cell was rinsed with PBS and cells were lysed as described before. Radioactivity was determined in a y-counter and calculated as percentage of the applied dose per 1×10^6 cells. Experiments were performed three times, and three repetitions per independent experiment were acquired.

HNO399 cells = assay: In vitro binding on HNO399 cells; assay type: cell-based, human; settings: Example 2, 10 min to 480 min (FIG. 16)
Method: as §1, with “To evaluate kinetic properties the cells were exposed to ^177Lu-DOTA-labeled peptides for 10, 30, 60, 120, and 240 min, respectively, and lysed as described.” left out, “The internalization was assessed after exposure of the cells to ^177Lu-DOTA-labeled peptides for 10, 30, 60, 120, and 240 min at 37° C.” left out

Capan-2 cells = assay: In vitro binding, internalization and efflux on Capan-2 cells; assay type: cell-based, human
Method: For in vitro binding Studies, 4*10^5-6*10^5 cells were seeded in 6 well plates and cultivated for 24 to 48 hours. At the start of the experiment the medium was replaced with 1 ml serum free medium with a definite amount of radioactive labeled peptide per well. For normal binding assays the cells were incubated for 60 min at 37° C. and afterwards washed 3 times with PBS (pH 7.4). Cells were lysed with 2 times 0.5 ml of a 0.3 M NaOH +0.2% SDS lysis-buffer. Competition assays were performed with ^125I-labeled and unlabelled (10^−6 to 10^−11M) peptide and incubated at the same time for 60 min.
Cells were incubated for 10 to 240 min with ^177Lu-labelled peptide in internalization assays. After the washing steps, the cells were incubated with 1 ml glycine-HCl (1 M, pH 2.2) buffer for 10 min to remove surface bound peptide. Prior to the lyses the cells were washed again. Values are given as percentage of applied dose per 10^6 cells.
The efflux was tested with ^177Lu-labeled peptides. After 60 min incubation the radioactive medium was removed and 1 ml fresh serum-free medium was added. After additional incubation of 60, 120 or 240 min, cell bound activity was measured.

[1] = Serum stability assay (radio-HPLC); assay type: in vitro ADME, human
Method: Five MBq of the purified ^131I-radiolabeled peptide was incubated in 300 μL human serum at 37° C. After different time intervals (15 min to 24 hours) 20 μL serum was precipitated with 40 μL acetonitrile. The stability of the labeled peptide in the supernatant was monitored by radio-HPLC at selected time points using a chromolith performance RP18ec column (3 mm×100 mm) equipped with a gamma detector (Packard COBRA™ Auto-Gamma, GMI). Separation condition was a gradient of 0% to 60% aqueous acetonitrile supplemented with 0.1% TFA over 10 min with a flow rate of 2 mL/min.

[2] = tested on: brain metastases derived from breast cancer and NSCLC; assay: Histochemical peptide staining of brain metastases; set-up: species or system human
Method: Staining with the biotinylated PEG(12)-SFITGv6 peptide was performed on acetone-fixed cryosections (5 μm) of tumor tissues after blocking of unspecific binding using the Avidin/Biotin Blocking Kit (SP-2001, Vector Laboratories). A stock solution of the lyophilized peptide was prepared by dilution in 5% aqueous DMSO. Slices were incubated overnight at 4° C. with 10^-5 M peptide concentration in antibody diluent (DAKO). Detection of bound peptide was carried out with the Vectastain Elite ABC Kit (PK-6100, Vector Laboratories) according to manufacturer's protocol. Peptide specificity was ensured by a scrambled (GRD) PEG(12)-SFITGv6 derivate, the somatostatin receptor ligand DOTATOC and negative controls (without peptide or primary antibody) Staining results were assessed by bright field microscopy (BX50) with the SC30 camera and the cell Sense software (all Olympus).

SMILES	internalization (HNO97 cells; % of the total bound peptide, Example 2, within 60 min) [%]	maximum binding capacity of ^177Lu-DOTA-labeled peptide (kinetics) (HNO97 cells; Example 2, 10 min to 480 min (FIG. 16)) [%]	total bound ^177Lu-DOTA-labeled peptide (internalization experiment) (HNO97 cells; Example 2, FIG. 17A, B) [%]	maximum binding capacity of ^177Lu-DOTA-labeled peptide (kinetics) (HNO399 cells) [%]	cell binding of ^177Lu-DOTA-labeled peptide (Capan-2 cells; after 60 min) [%]	internalization rate in comparison of the three peptides (Capan-2 cells; after 4 hours)	efflux (released into the culture medium) (Capan-2 cells; during 4 hours following 60 min exposure) [%]	proteolytic stability in human serum [1]	histochemical peptide staining result ([2]; breast cancer BM (NCH640k))	histochemical peptide staining result ([2]; lung BM (NCH2407))
CC(C)C[C@@H]1NC(=O)[C@H](CC(=O)O)NC(=O)CNC(=O)[C@H](CCCNC(=N)N)NC(=O)CNC(=O)[C@H]([C@@H](C)O)NC(=O)[C@@H](NC(=O)[C@H](CCCNC(=N)N)NC(=O)CNC(=O)CN2CCN(CC(=O)O)CCN(CC(=O)O)CCN(CC(=O)O)CC2)CSSC[C@@H](C(=O)N[C@@H](Cc2ccc(O)cc2)C(=O)N2CCC[C@H]2C(=O)N[C@@H](CC(=O)O)C(N)=O)NC(=O)[C@H](CC(C)C)NC(=O)[C@H](CCCNC(=N)N)NC(=O)CNC1=O [^177Lu-DOTA-SFLAP3, metal not drawn] ({DOTA}-GRCTGRGDLGRLCYPD-NH2; disulfide 3-13; N-terminus and C-terminus assumed)	60	18.5	11.14	4.31	9.5	highest internalization rate	50			
CSCC[C@@H]1NC(=O)[C@H](CC(C)C)NC(=O)[C@H](CC(=O)O)NC(=O)CNC(=O)[C@H](CCCNC(=N)N)NC(=O)[C@H](Cc2ccccc2)NC(=O)[C@H]([C@@H](C)O)NC(=O)[C@@H](NC(=O)[C@H](CCCNC(=N)N)NC(=O)CN)CSSC[C@@H](C(=O)N[C@@H](Cc2ccc(O)cc2)C(=O)N2CCC[C@H]2C(=O)N[C@@H](CC(=O)O)C(=O)O)NC(=O)[C@H](CC(C)C)NC(=O)[C@H](CCC(N)=O)NC1=O [SFITGv6, NH2-G-R-C1-T-F-R-G-D-L-M-Q-L-C1-Y-P-D-COOH] (H-GRCTFRGDLMQLCYPD-OH; disulfide 3-13)								outstanding stability in human serum over a period of 24 hours	moderate but distinct tumor cell staining	very strong tumor-specific staining pattern
